This note sets out measurements from patent publication US9629822B2, “Flavonoid based antiviral targets” (UNIVERSITY OF CENTRAL FLORIDA RESEARCH FOUNDATION, INC., priority 2012, dated 2017).

Read-outs that look alike come from different tables or passages of the source.

Series [1] concerns mock transfected 293T HEK cells. The series is described as follows: PathDetect Elk1 luminescence in mock transfected (empty pcDNA3 vector) 293T HEK cells, off-target effect. The format is cell-based, human. The conditions noted are these: 10 μM vs 1% DMSO control, Equation 1; for activation at 10 µM: Homo sapiens, read-out: Effect(%) on mock cells with each drug at 10 μM. The method in brief:
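HEK 293T cells were transiently transfected with PathDetect Elk1/luciferase and empty pcDNA3, then exposed to 10 μM compound in medium with 1% FBS and 1% DMSO for 20-24 h at 37 °C. BrightGlo luminescence was compared with the 1% DMSO control: % effect = 100%×(mock/DMSO) − 100%.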

A further series concerns CHO cells. Put plainly: CHO cell toxicity, MTS assay, 48 h. The format is cell-based, Chinese hamster. As to conditions: Cricetulus griseus, CHO, 37° C., MTS reagent, read-out: CHO 48 h IC50 value. The method in brief:
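CHO cells plated at 10,000 cells/mL, incubated overnight, then exposed to drug (final DMSO <1%) for 48 h at 37 °C, 5% CO2, in triplicate. MTS added for a further 4 h; absorbance read at 490 nm. IC50 taken from relative A490 versus drug concentration.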
For orientation: Formazan colour is commonly taken as a measure of viable cells.

Series [2] can be described thus: TZMbI assay for cell safety (cell viability and growth, CytoTox Glo). The conditions noted are these: human, TZMbI cells, read-out: % decrease in viability compared to 0.1% DMSO vehicle based on viable cell luminescence. The protocol: Assays were performed below in accordance with the procedures set forth in The Journal of Immunology, 2006, 176, pp. 6900-905; AIDS Research and Human Retroviruses, 2004, 20:11, pp. 1157-1665.^32,33 TZMbI assays for cell safety were performed to identify potential anti-viral compounds. TZMbI assays for cell safety were performed to identify potential anti-viral compounds per the methods.

The test system of another series is HIV-1 BaL. Put plainly: Anti-HIV assay (luciferase, HIV-1 BaL infection). The format is cell-based. The method in brief:
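Cells infected with HIV-1 BaL at 2 ng/mL p24 (MOI approx 0.02) in compound presence. Infection read out by luciferase.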

Where [3] appears, read: 10 μM, Experiment 1B, 2 ng/mL p24 HIV-1 BaL.
Setting [4] is: Human immunodeficiency virus 1, BAL, 1.25 μM, Experiment 2B.
Setting [5] is: Human immunodeficiency virus 1, BAL, 2.5 μM, Experiment 2B.
The mark [6] stands for this setting: Human immunodeficiency virus 1, BAL, 5 μM, Experiment 2B.
Setting [7] is: Human immunodeficiency virus 1, BAL, 10 μM, Experiment 1B, 2 ng/mL p24 HIV-1 BaL.
The mark [8] stands for this setting: Human immunodeficiency virus 1, BAL, 10 μM, Experiment 2B.
[9] abbreviates: Human immunodeficiency virus 1, BAL, 20 μM, Experiment 2B.

The term IC50 denotes the concentration that gives 50% inhibition. For orientation: inhibition means the relative decrease from the control value, in per cent. As for `COc1ccc(Cl)cc1-c1oc2ccccc2c(=O)c1O` [Compound 9h, 2-(5-chloro-2-methoxyphenyl)-3-hydroxy-4H-chromen-4-one], the “Effect(%) on mock cells with each drug at 10 μM” value in series [1] was 2%. Further, the activation at 10 µM in series [1] was found to be 2%. Moreover, in the series on CHO cells, the IC50 is 25 ± 2.2 µM. In addition, in series [2] (Experiment 2A), the cytotoxicity at 1.25 μM is -8.02%. For the same compound, the cytotoxicity at 2.5 μM in series [2] (Experiment 2A) is -10.4%. The cytotoxicity at 5 μM in series [2] (Experiment 2A) was -13.9%. Further, the values for the cytotoxicity at 10 μM in series [2] (Experiment 1A) and in series [2] (Experiment 2A) were 23.6% and 1.57%, respectively. Moreover, the cytotoxicity at 20 μM in series [2] (Experiment 2A) came to 7.83%. The “RLU (relative luciferase units)” value is recorded as 1.61 RLU with HIV-1 BaL (1.25 μM, Experiment 2B); 16.44 RLU in the series on HIV-1 BaL (2.5 μM, Experiment 2B); 18.32 RLU in the series with HIV-1 BaL (5 μM, Experiment 2B); 367.6 RLU in the series on HIV-1 BaL (setting [3]); 49.04 RLU with HIV-1 BaL (10 μM, Experiment 2B); 20.14 RLU in the series with HIV-1 BaL (20 μM, Experiment 2B). Moreover, the inhibition at 1.25 µM in the series with HIV-1 BaL (setting [4]) is -8.02%. The inhibition at 2.5 µM in the series on HIV-1 BaL (setting [5]) is -10.4%. The inhibition at 5 µM in the series on HIV-1 BaL (setting [6]) is -13.9%. Besides, the values for the inhibition at 10 µM in the series with HIV-1 BaL (setting [7]) and in the series with HIV-1 BaL (setting [8]) were 60.7% and 1.57%, respectively. In addition, the inhibition at 20 µM in the series with HIV-1 BaL (setting [9]) was determined as 7.83%.

Take `COc1ccccc1-c1oc2ccccc2c(=O)c1O` [Compound 9a, 3-Hydroxy-2-(2-methoxyphenyl)-4H-chromen-4-one]: in series [1], the activation at 10 µM was -1%. Moreover, the IC50 with CHO cells is above 100 µM. Also, the cytotoxicity at 5 μM in series [2] (Experiment 2A) is -3.31%. Besides, the cytotoxicity at 10 μM in series [2] (Experiment 2A) was -24.9%. Also, the cytotoxicity at 20 μM in series [2] (Experiment 2A) was -21.6%. The cytotoxicity at 40 μM in series [2] (40 μM, Experiment 2A) was -25.4%. Also, in series [2] (80 μM, Experiment 2A), the cytotoxicity at 80 μM is -7.86%. For the same compound, the “RLU (relative luciferase units)” value in the series with HIV-1 BaL (5 μM, Experiment 2B) came to 16.52 RLU; in the series on HIV-1 BaL (10 μM, Experiment 2B) it was 16.51 RLU; in the series with HIV-1 BaL (20 μM, Experiment 2B), 36.83 RLU; with HIV-1 BaL (40 μM, Experiment 2B), 65.50 RLU; with HIV-1 BaL (80 μM, Experiment 2B), 59.24 RLU. Further, the inhibition at 5 µM with HIV-1 BaL (setting [6]) is -3.31%. The inhibition at 10 µM in the series with HIV-1 BaL (setting [8]) was -24.9%. Besides, in the series on HIV-1 BaL (setting [9]), the inhibition at 20 µM was -21.9%. Moreover, the inhibition at 40 µM in the series on HIV-1 BaL (Human immunodeficiency virus 1, BAL, 40 μM, Experiment 2B) was -25.4%. The inhibition at 80 µM in the series with HIV-1 BaL (Human immunodeficiency virus 1, BAL, 80 μM, Experiment 2B) was -7.86%.

Consider `COc1ccc(Br)cc1/C=C/C(=O)c1ccc2ccccc2c1O` [Compound 8m, (E)-3-(5-bromo-2-methoxyphenyl)-1-(1-hydroxynaphthalen-2-yl)prop-2-en-1-one], for which the “Effect(%) on mock cells with each drug at 10 μM” value in series [1] turned out to be 35%. Besides, the activation at 10 µM in series [1] turned out to be 35%. The IC50 in the series on CHO cells worked out at 15.6 ± 1 µM. The cytotoxicity at 1.25 μM in series [2] (Experiment 2A) worked out at 10.3%. Moreover, the cytotoxicity at 2.5 μM in series [2] (Experiment 2A) is 17.9%. For the same compound, the cytotoxicity at 5 μM in series [2] (Experiment 2A) was 10.7%. Further, the cytotoxicity at 10 μM was 20.3% in series [2] (Experiment 1A) and 38.2% in series [2] (Experiment 2A). For the same compound, the cytotoxicity at 20 μM in series [2] (Experiment 2A) turned out to be 90%. The “RLU (relative luciferase units)” value in the series with HIV-1 BaL (1.25 μM, Experiment 2B) is 324.10 RLU; in the series with HIV-1 BaL (2.5 μM, Experiment 2B) it was 283.48 RLU; in the series on HIV-1 BaL (5 μM, Experiment 2B) it was 251.02 RLU; in the series with HIV-1 BaL (setting [3]) it was 437.6 RLU; with HIV-1 BaL (10 μM, Experiment 2B) it was 170.42 RLU; in the series on HIV-1 BaL (20 μM, Experiment 2B), 160.21 RLU. Moreover, in the series with HIV-1 BaL (setting [4]), the inhibition at 1.25 µM is -24.3%. Further, the inhibition at 2.5 µM in the series with HIV-1 BaL (setting [5]) is -9.08%. Besides, the inhibition at 5 µM with HIV-1 BaL (setting [6]) came out at 9.04%. For the same compound, the inhibition at 10 µM came out at 53.3% with HIV-1 BaL (setting [7]) and 37.7% in the series on HIV-1 BaL (setting [8]). In the series with HIV-1 BaL (setting [9]), the inhibition at 20 µM was 49.9%.
